Data as given in US7476673B2, “Disubstituted chalcone oximes as selective agonists of RARγ retinoid receptors” (Allergan, Inc., priority 2003, dated 2009).

Columns and labels:
[1] = molecular target: T1, RARγ (Homo sapiens, UniProt P13631); assay: ligand binding assay, RARγ; conditions: results expressed in Ki numbers, read-out: RAR Binding γ
T1 sequence (P13631 1-454): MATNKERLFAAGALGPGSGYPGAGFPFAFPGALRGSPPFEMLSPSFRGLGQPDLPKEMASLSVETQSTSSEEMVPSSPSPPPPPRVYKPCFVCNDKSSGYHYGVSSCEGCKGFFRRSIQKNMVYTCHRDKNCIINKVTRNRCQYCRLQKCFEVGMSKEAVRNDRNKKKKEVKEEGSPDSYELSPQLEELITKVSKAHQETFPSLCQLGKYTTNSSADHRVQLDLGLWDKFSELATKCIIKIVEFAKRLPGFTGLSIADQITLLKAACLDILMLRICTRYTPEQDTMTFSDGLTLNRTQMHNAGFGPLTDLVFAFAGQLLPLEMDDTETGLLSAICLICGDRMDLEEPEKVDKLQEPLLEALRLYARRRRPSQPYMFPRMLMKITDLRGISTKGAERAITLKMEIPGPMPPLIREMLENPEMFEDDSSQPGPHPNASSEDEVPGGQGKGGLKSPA
Description: (§1) A holoreceptor transactivation assay and a ligand binding assay which measure the antagonist/agonist like activity of the compounds of the invention, or their ability to bind to the several retinoid receptor subtypes, respectively, are described in published PCT Application No. WO WO93/11755 (particularly on pages 30-33 and 37-41) published on Jun. 24, 1993, the specification of which is also incorporated herein by reference. A detailed experimental procedure for holoreceptor transactivations has been described by Heyman et al. Cell 68, 397-406, (1992); Allegretto et al. J. Biol. Chem. 268, 26625-26633, and Mangelsdorf et al. The Retinoids: Biology, Chemistry and Medicine, pp 319-349, Raven Press Ltd., New York, which are expressly incorporated herein by reference. The results obtained in this assay are expressed in EC50 numbers, as they are also in the chimeric receptor transactivation assay. The results of the ligand binding assay are expressed in Ki numbers. (See Cheng et al. Biochemical Pharmacology Vol. 22 pp 3099-3108, expressly incorporated herein by reference.)
(§2) Table 1 discloses the activity of certain exemplary compounds of the invention in the above-described chimeric RAR receptor transactivation and binding assays.

[2] = molecular target: T2, RARβ (Homo sapiens, UniProt P10826); assay: chimeric receptor transactivation assay, RARβ; type: cell-based; conditions: for EC50: chimeric receptor transactivation, read-out: RAR EC50 β; for % Efficiency β: percentage of maximum compared to standard TTNPB
T2 sequence (P10826 183-455 limits assumed): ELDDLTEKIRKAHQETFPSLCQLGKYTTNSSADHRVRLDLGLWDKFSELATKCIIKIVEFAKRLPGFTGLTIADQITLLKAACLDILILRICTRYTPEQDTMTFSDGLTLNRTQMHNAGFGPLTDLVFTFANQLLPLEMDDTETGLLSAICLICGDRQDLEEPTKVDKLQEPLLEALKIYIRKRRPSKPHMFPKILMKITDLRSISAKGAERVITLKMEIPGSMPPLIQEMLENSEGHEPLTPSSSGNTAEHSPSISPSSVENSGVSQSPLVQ
Method: (§3) The compounds of the invention were tested in certain assays for activity as agonists of RAR and RXR retinoid receptors. Specifically, one such assay is a chimeric receptor transactivation assay which tests for agonist-like activity in the RARα, RARβ and RARγ receptor subtypes, and which is based on work published by Feigner P. L. and Holm M. (1989) Focus, 112 is described in detail in U.S. Pat. No. 5,455,265. The specification of U.S. Pat. No. 5,455,265 is hereby expressly incorporated by reference.
as §1
(§4) Efficacy in a transactivation assay is expressed as a percentage of the maximum potency attained by the compound compared to a standard which, in this case, is the compound 4-[(1E)-2-(5,6,7,8-tetrahydro-5,5,8,8-tetramethyl-2-naphthalenyl)-1-propenyl]-benzoic acid. (TTNPB) This standard compound is described in PCT Publication WO 2002077169 A2.
as §2

[3] = molecular target: T3, RARα (Homo sapiens, UniProt P10276); assay: ligand binding assay, RARα; conditions: results expressed in Ki numbers, read-out: RAR Binding α
T3 sequence (P10276 1-462): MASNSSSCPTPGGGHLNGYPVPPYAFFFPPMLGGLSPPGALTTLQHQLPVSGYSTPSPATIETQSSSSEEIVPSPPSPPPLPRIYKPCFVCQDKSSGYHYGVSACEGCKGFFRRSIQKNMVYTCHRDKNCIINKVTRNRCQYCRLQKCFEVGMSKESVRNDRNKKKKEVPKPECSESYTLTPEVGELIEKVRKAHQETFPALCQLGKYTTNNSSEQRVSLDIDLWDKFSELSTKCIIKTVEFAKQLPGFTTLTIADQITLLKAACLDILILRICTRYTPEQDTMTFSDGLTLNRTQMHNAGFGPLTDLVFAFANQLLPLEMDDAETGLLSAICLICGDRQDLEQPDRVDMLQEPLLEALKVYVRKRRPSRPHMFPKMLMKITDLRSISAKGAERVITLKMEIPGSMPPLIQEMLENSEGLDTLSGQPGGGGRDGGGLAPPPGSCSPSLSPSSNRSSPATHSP
Description: as §1, §2

[4] = molecular target: T4, RARβ (Homo sapiens, UniProt P10826); assay: ligand binding assay, RARβ; conditions: results expressed in Ki numbers, read-out: RAR Binding β
T4 sequence (P10826 1-455): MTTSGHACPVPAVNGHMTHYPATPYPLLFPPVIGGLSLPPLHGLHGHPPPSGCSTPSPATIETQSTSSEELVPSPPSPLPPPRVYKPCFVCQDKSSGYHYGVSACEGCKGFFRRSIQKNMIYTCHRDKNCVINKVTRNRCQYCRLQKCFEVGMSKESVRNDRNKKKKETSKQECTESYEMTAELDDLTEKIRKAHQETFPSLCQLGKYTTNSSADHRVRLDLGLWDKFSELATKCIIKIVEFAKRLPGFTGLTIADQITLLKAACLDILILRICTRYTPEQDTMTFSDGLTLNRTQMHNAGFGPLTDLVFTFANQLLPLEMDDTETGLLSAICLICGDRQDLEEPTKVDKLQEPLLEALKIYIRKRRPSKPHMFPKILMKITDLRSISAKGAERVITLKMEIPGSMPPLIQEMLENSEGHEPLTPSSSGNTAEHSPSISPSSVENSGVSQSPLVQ
Description: as §1, §2

[5] = molecular target: T5, RARα (Homo sapiens, UniProt P10276); assay: chimeric receptor transactivation assay, RARα; type: cell-based; conditions: for EC50: chimeric receptor transactivation, read-out: RAR EC50 α; for % Efficiency α: percentage of maximum compared to standard TTNPB
T5 sequence (P10276 183-417 limits assumed): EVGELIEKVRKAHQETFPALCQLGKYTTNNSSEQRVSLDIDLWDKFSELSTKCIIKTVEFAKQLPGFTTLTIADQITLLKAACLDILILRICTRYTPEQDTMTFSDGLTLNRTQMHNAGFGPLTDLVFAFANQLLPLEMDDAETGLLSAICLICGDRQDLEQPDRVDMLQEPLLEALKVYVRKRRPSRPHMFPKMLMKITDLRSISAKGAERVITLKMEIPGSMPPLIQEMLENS
Method: as §3, §1, §4, §2

[6] = molecular target: T6, RARγ (Homo sapiens, UniProt P13631); assay: chimeric receptor transactivation assay, RARγ; type: cell-based; conditions: for EC50: chimeric receptor transactivation, read-out: RAR EC50 γ; for % Efficiency γ: percentage of maximum compared to standard TTNPB
T6 construct: % Efficiency γ; other: percentage of maximum compared to standard TTNPB
T6 sequence (P13631 185-454 limits assumed): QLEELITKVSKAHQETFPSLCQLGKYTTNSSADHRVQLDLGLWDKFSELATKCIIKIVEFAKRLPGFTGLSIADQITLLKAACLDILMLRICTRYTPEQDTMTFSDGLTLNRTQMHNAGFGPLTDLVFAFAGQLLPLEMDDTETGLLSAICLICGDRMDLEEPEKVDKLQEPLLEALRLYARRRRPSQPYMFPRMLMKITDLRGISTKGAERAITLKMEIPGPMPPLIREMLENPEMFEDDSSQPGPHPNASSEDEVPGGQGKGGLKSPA
Method: as §3, §1, §4, §2

SMILES	Ki [1] [nM]	EC50 [2] [nM]	Ki [3] [nM]	Ki [4] [nM]	EC50 [5] [nM]	EC50 [6] [nM]	% Efficiency β [2] [%]	% Efficiency α [5] [%]	% Efficiency γ [6] [%]
COc1cc2c(cc1C(/C=C/c1ccc(C(=O)O)cc1)=N/O)C(C)(C)CCC2(C)C	648	1270	2000	2500	80000	19	65	29	98
CC1(C)CC(C)(C)c2cc(C(C=Cc3ccc(C(=O)O)cc3F)=NO)ccc21	25	114	14000	25000	> 1000	1	79	–	72
CC1(C)CCSc2ccc(C(/C=C/c3ccc(C(=O)O)cc3F)=N\O)cc21	19	503	10000	10000	> 1000	21	45	–	120
CC1(C)CCSc2ccc(C(/C=C/c3ccc(C(=O)O)cc3F)=N/O)cc21	15	173	10000	8000	> 1000	10	55	–	90
CC1(C)CCC(C)(C)c2cc(C(C=Cc3ccc(C(=O)O)cc3)=NO)ccc21 [drawing 9]	14	34	2400	2000	150	0.37	112	81	114
CC1(C)CCC(C)(C)c2cc(C(C=Cc3ccc(C(=O)O)cc3)=NO)ccc21 [drawing 8]	3	31	2500	1300	441	0.09	102	81	103
CC1(C)CCCc2ccc(C(/C=C/c3ccc(C(=O)O)cc3F)=N/O)cc21	46	62	5200	1200	118	44	133	39	97
CC1(C)CCC(C)(C)c2cc(C(C=Cc3ccc(C(=O)O)cc3F)=NO)ccc21 [drawing 10]	4	53	8000	5000	> 1000	0.11	84	–	84

Now from value to compound:

Ki [1] [nM]	EC50 [2] [nM]	Ki [3] [nM]	Ki [4] [nM]	EC50 [5] [nM]	EC50 [6] [nM]	% Efficiency β [2] [%]	% Efficiency α [5] [%]	% Efficiency γ [6] [%]	SMILES
6000	> 10000	2000	> 10000	> 10000	> 10000	–	–	–	CC1(C)CCCc2cc(C(C=Cc3ccc(C(=O)O)cc3)=NO)ccc21 [drawing 16]
39	93	6000	11000	134	2	118	55	91	CC1(C)CC(C)(C)c2cc(C(C=Cc3ccc(C(=O)O)cc3)=NO)ccc21 [drawing 31]
16	432	22000	4700	> 1000	3	88	–	98	CC1(C)CCCc2ccc(C(C=Cc3ccc(C(=O)O)cc3)=NO)cc21 [drawing 14]
5	65	6000	1200	2120	0.09	106	51	97	CC1(C)CCCc2ccc(C(C=Cc3ccc(C(=O)O)cc3)=NO)cc21 [drawing 12]
27000	173	12000	31000	12000	204	60	42	65	CC1(C)CCCc2cc(C(C=Cc3ccc(C(=O)O)cc3)=NO)ccc21 [drawing 17]
55	103	4500	1230	> 1000	15	102	–	100	CC1(C)CCSc2ccc(C(C=Cc3ccc(C(=O)O)cc3)=NO)cc21 [drawing 20]
10000	93	5000	5000	135	57	97	60	95	CC1(C)CC(C)(C)c2cc(C(C=Cc3ccc(C(=O)O)cc3)=NO)ccc2O1 [drawing 25]
